Reference: patent US7265129B2, “Anti-infective biaryl compounds” (priority 2002, dated 2007)

Tests used:
[1] = system: S. aureus ATCC 33591; experiment: MIC, NCCLS broth microdilution, S. aureus ATCC 33591; type: cell-based, Staphylococcus aureus
In short: (§1)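 Broth microdilution per NCCLS M7-A4/M11-A4/M27-T guidelines; minimal inhibitory concentration read as endpoint. Candida tested by Manual of Clinical Microbiology method.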

[2] = system: S. aureus ATCC 27660; experiment: MIC, NCCLS broth microdilution, S. aureus MRSA; type: cell-based, Staphylococcus aureus; details: S. aureus ATCC 27660, methicillin resistant strain (MRSA)
In short: as §1

[3] = system: C. albicans ATCC 38247; experiment: MIC, antifungal assay, C. albicans; type: cell-based, Candida albicans
In short: as §1

[4] = system: S. aureus ATCC 13709; experiment: MIC, NCCLS broth microdilution, S. aureus MSSA; type: cell-based, Staphylococcus aureus; details: S. aureus ATCC 13709, methicillin sensitive strain (MSSA)
In short: as §1

[5] = system: E. faecalis ATCC 29212; experiment: MIC, NCCLS broth microdilution, E. faecalis; type: cell-based, Enterococcus faecalis
In short: as §1

[6] = system: S. pneumoniae ATCC 49619; experiment: MIC, NCCLS broth microdilution, S. pneumoniae; type: cell-based, Streptococcus pneumoniae
In short: as §1

[7] = system: S. epidermidis ATCC 12228; experiment: MIC, S. epidermidis; type: cell-based, Staphylococcus epidermidis; details: Table C
Method: (§2) Compounds according to this invention were screened for their in vitro activities against selected species of bacteria and fungi. The minimal inhibition concentration (MIC) of these compounds was determined using the National Committee for Clinical Laboratory Standards (NCCLS) broth microdilution assay in microtiter plates, as set forth in: (1) the guidelines of the National Committee for Clinical Laboratory Standards (NCCLS) Document M7-A4 (NCCLS, 1997); (2) the guidelines of the National Committee for Clinical Laboratory Standards (NCCLS) Document M11-A4 (NCCLS, 1997); and (3) the guidelines and reference method of the National Committee for Clinical Laboratory Standards (NCCLS) Document M27-T (NCCLS, 1995). For antifungal assays, the method recommended in Murray, P R., 1995 Manual of Clinical Microbiology (ASM Press, Washington, D.C.), was employed.
(§3) Additionally, some compounds were screened against Enterococcus faccium (ATCC 51559, a vancomycin resistant strain (VRE)), Staphylococcus epidermidis (ATCC 12228), Streptococcus pneumoniae (ATCC 51422, a penicillin resistant strain (PRSP)), and/or Streptococcus pyogenes (ATCC 49399).

[8] = system: E. faecium ATCC 51559; experiment: MIC, E. faecium VRE; type: cell-based, Enterococcus faccium; details: Table C; E. faecium ATCC 51559, vancomycin resistant strain (VRE)
Method: as §2, §3

[9] = MIC, Table C (organism not given); type: cell-based
Method: as §2, §3

[10] = system: B. cereus ATCC 11778; experiment: MIC, NCCLS broth microdilution, B. cereus; type: cell-based, Bacillus cereus
In short: as §1

Row | SMILES | Minimum Inhibitory Concentration (MIC), organism F [1] | Minimum Inhibitory Concentration (MIC), organism E [2] | Minimum Inhibitory Concentration (MIC), organism B [3] | Minimum Inhibitory Concentration (MIC), organism D [4] | Minimum Inhibitory Concentration (MIC), organism C [5] | Minimum Inhibitory Concentration (MIC), organism G [6] | Minimum Inhibitory Concentration (MIC), organism B [7] | Minimum Inhibitory Concentration (MIC), organism A [8] | Minimum Inhibitory Concentration (MIC), organism E [9] | Minimum Inhibitory Concentration (MIC), organism A [10]
1 | Cn1cc(NC(=O)c2cc3ccccc3cn2)cc1C(=O)Nc1cc(-c2nc3ccc(NC(=O)C(F)(F)F)cc3[nH]2)n(C)c1 [Compound A-5] | +++ (MIC ≦ 4 μg/mL) | +++ (MIC ≦ 4 μg/mL) | >32 µg/mL | +++ (MIC ≦ 4 μg/mL) | +++ (MIC ≦ 4 μg/mL) | +++ (MIC ≦ 4 μg/mL) | +++ (MIC ≦ 4 pg/mL) | +++ (MIC ≦ 4 pg/mL) | +++ (MIC ≦ 4 pg/mL) | +++ (MIC ≦ 4 μg/mL)
2 | Cn1cc(NC(=O)c2cc3ccccc3cn2)cc1C(=O)Nc1cc(-c2nc3ccc(Cl)cc3[nH]2)n(C)c1 [Compound A-7] | +++ (MIC ≦ 4 μg/mL) | +++ (MIC ≦ 4 μg/mL) | >32 µg/mL | +++ (MIC ≦ 4 μg/mL) | +++ (MIC ≦ 4 μg/mL) | +++ (MIC ≦ 4 μg/mL) | +++ (MIC ≦ 4 pg/mL) | +++ (MIC ≦ 4 pg/mL) | +++ (MIC ≦ 4 pg/mL) | +++ (MIC ≦ 4 μg/mL)
3 | Cn1cc(NC(=O)c2cc(NC(=O)c3sccc3Cl)cn2CCCN2CCCCC2)cc1-c1nc2ccccc2[nH]1 [Compound A-49] | +++ (MIC ≦ 4 μg/mL) | +++ (MIC ≦ 4 μg/mL) | + (12 ≦ MIC ≦ 32 μg/mL) | +++ (MIC ≦ 4 μg/mL) | +++ (MIC ≦ 4 μg/mL) | +++ (MIC ≦ 4 μg/mL) | +++ (MIC ≦ 4 pg/mL) | +++ (MIC ≦ 4 pg/mL) | +++ (MIC ≦ 4 pg/mL) | +++ (MIC ≦ 4 μg/mL)
4 | Cn1cc(NC(=O)c2cc(NC(=O)c3sccc3Cl)cn2CCCN2CCSCC2)cc1-c1nc2ccccc2[nH]1 [Compound A-51] | +++ (MIC ≦ 4 μg/mL) | +++ (MIC ≦ 4 μg/mL) | >32 µg/mL | +++ (MIC ≦ 4 μg/mL) | +++ (MIC ≦ 4 μg/mL) | +++ (MIC ≦ 4 μg/mL) | +++ (MIC ≦ 4 pg/mL) | +++ (MIC ≦ 4 pg/mL) | +++ (MIC ≦ 4 pg/mL) | +++ (MIC ≦ 4 μg/mL)
5 | COc1ccc2nc(-c3cc(NC(=O)c4cc(NC(=O)c5cc6ccccc6cn5)cn4C)cn3C)[nH]c2c1 [Compound A-4] | +++ (MIC ≦ 4 μg/mL) | +++ (MIC ≦ 4 μg/mL) | >32 µg/mL | +++ (MIC ≦ 4 μg/mL) | +++ (MIC ≦ 4 μg/mL) | +++ (MIC ≦ 4 μg/mL) | +++ (MIC ≦ 4 pg/mL) | +++ (MIC ≦ 4 pg/mL) | +++ (MIC ≦ 4 pg/mL) | +++ (MIC ≦ 4 μg/mL)
6 | Cn1cc(NC(=O)c2cc(NC(=O)c3sccc3Cl)cn2CCCO)cc1-c1nc2ccccc2[nH]1 [Compound A-48] | +++ (MIC ≦ 4 μg/mL) | +++ (MIC ≦ 4 μg/mL) | >32 µg/mL | +++ (MIC ≦ 4 μg/mL) | +++ (MIC ≦ 4 μg/mL) | +++ (MIC ≦ 4 μg/mL) | +++ (MIC ≦ 4 pg/mL) | +++ (MIC ≦ 4 pg/mL) | +++ (MIC ≦ 4 pg/mL) | +++ (MIC ≦ 4 μg/mL)
7 | Cn1cc(NC(=O)c2cc(NC(=O)c3sccc3Cl)cn2CCCN2CCOCC2)cc1-c1nc2ccccc2[nH]1 [Compound A-50] | +++ (MIC ≦ 4 μg/mL) | +++ (MIC ≦ 4 μg/mL) | >32 µg/mL | +++ (MIC ≦ 4 μg/mL) | +++ (MIC ≦ 4 μg/mL) | +++ (MIC ≦ 4 μg/mL) | +++ (MIC ≦ 4 pg/mL) | +++ (MIC ≦ 4 pg/mL) | +++ (MIC ≦ 4 pg/mL) | +++ (MIC ≦ 4 μg/mL)
8 | CN(C)CCCn1cc(NC(=O)c2cc3ccccc3cn2)cc1C(=O)Nc1cc(-c2nc3ccccc3[nH]2)n(C)c1 [Compound A-1] | +++ (MIC ≦ 4 μg/mL) | +++ (MIC ≦ 4 μg/mL) | +++ (MIC ≦ 4 μg/mL) | +++ (MIC ≦ 4 μg/mL) | +++ (MIC ≦ 4 μg/mL) | +++ (MIC ≦ 4 μg/mL) | +++ (MIC ≦ 4 pg/mL) | +++ (MIC ≦ 4 pg/mL) | +++ (MIC ≦ 4 pg/mL) | +++ (MIC ≦ 4 μg/mL)
9 | CN(C)CCCn1cc(NC(=O)c2ccc(F)cc2F)cc1C(=O)Nc1cc(-c2nc3ccccc3[nH]2)n(C)c1 [Compound A-16] | +++ (MIC ≦ 4 μg/mL) | +++ (MIC ≦ 4 μg/mL) | + (12 ≦ MIC ≦ 32 μg/mL) | +++ (MIC ≦ 4 μg/mL) | +++ (MIC ≦ 4 μg/mL) | +++ (MIC ≦ 4 μg/mL) | +++ (MIC ≦ 4 pg/mL) | +++ (MIC ≦ 4 pg/mL) | +++ (MIC ≦ 4 pg/mL) | +++ (MIC ≦ 4 μg/mL)
10 | CN(C)CCCn1cc(NC(=O)c2ccc(Cl)cc2F)cc1C(=O)Nc1cc(-c2nc3ccncc3[nH]2)n(C)c1 [Compound A-45] | +++ (MIC ≦ 4 μg/mL) | +++ (MIC ≦ 4 μg/mL) | ++ (4 < MIC < 12 μg/mL) | +++ (MIC ≦ 4 μg/mL) | +++ (MIC ≦ 4 μg/mL) | +++ (MIC ≦ 4 μg/mL) | +++ (MIC ≦ 4 pg/mL) | +++ (MIC ≦ 4 pg/mL) | +++ (MIC ≦ 4 pg/mL) | +++ (MIC ≦ 4 μg/mL)
11 | Cn1cc(NC(=O)c2cc(NC(=O)c3sccc3Cl)cn2CCCN2CCC(F)(F)CC2)cc1-c1nc2ccccc2[nH]1 [Compound A-54] | +++ (MIC ≦ 4 μg/mL) | +++ (MIC ≦ 4 μg/mL) | >32 µg/mL | +++ (MIC ≦ 4 μg/mL) | +++ (MIC ≦ 4 μg/mL) | +++ (MIC ≦ 4 μg/mL) | +++ (MIC ≦ 4 pg/mL) | +++ (MIC ≦ 4 pg/mL) | +++ (MIC ≦ 4 pg/mL) | +++ (MIC ≦ 4 μg/mL)
